Read-outs that look alike come from different tables or passages of the source.
Assays:
[1] = tested on: KAT-II; settings: published KAT-II inhibitors, Figure 2; cited from earlier work
[2] = biological target: T1, hKAT-II (Homo sapiens, UniProt Q8N5Z0); experiment: Coupled fluorescence in vitro inhibition assay of hKAT-II; type: biochemical; settings: for Inhibitory Activity [%I ± SEM] c = 1 µM: 30 min pre-incubation with enzyme, mean ± SEM
T1 construct: hexahistidine tag (N); made in house; host or cells: E. coli BL21(DE3)-RIL
Protocol: The inhibitory activity of amino ketones 11 and 12 was evaluated using a fluorimetric in vitro assay. The activity was determined as the percentage of inhibition (%I) at a concentration of 1 µmol/L and also as IC50 values (Table 1). The observed inhibitory activity confirmed the validity of the computational model and was suitable to conduct a synthesis-directed SAR study around the predicted heterocyclic α-amino ketone structure.
The nucleotide sequence encoding hKAT-II gene was constructed by Invitrogen, Thermo Fisher Scientific. The hKAT-II gene, optimized for heterologous expression in E. coli, was cloned into a pET15b vector using NdeI-XhoI. The hKAT-II protein, carrying an N-terminal hexahistidine tag, was produced in E.coli BL21(DE3)-RIL cells for 4 h at 37 °C. The bacterial cells were then harvested and disintegrated using One-Shot. […] (25.000× g, 30 min) centrifugation cleared cell lysate containing hKAT-II was loaded on the top of a HisTrap Fast Flow column (Cytiva) equilibrated in loading buffer (40 mM Tris, pH 8; 1000 mM NaCl, 40 µM PLP, 5 mM MgCl2, 20 mM imidazole). Following elution of the bound proteins by the loading buffer containing 600 mM imidazole, purified hKAT-II was dialyzed into a storage buffer (20 mM Hepes pH 7.5; 50 mM NaCl, 70 µM PLP, 10% glycerol), concentrated to 1.0–1.5 mg/mL, aliquoted, and stored at −80 °C.
hKAT-II activity was measured using a fluorescence assay utilizing L-α-aminoadipic acid (AAD) and α-ketoglutarate as the substrates as previously described. The assay medium (100 µL) consisted of 0.75 µM of hKAT-II, 0.3 mM of AAD, 50 µM α-ketoglutarate, 3 mM NAD^+, 88 µg/mL of glutamic dehydrogenase, and 5 µM pyridoxal phosphate (PLP) in a 0.1 M phosphate buffer pH 7.5. The activity of the enzyme was assessed on a Spark multiple mode reader (Tecan Group Ltd., Männedorf, Switzerland) with an excitation wavelength of 340 nm and emission wavelength of 390 nm at 37 °C. The plate was shaken for 20 s before reading. The kinetic interval was set at 30 s between each reading, and data were collected for 30 min. The activity of the enzyme was assayed in pentaplicate in each measurement (n = 3). Kinetic data were then collected over a period of 30 min, and the linear part of the initial velocity was used to calculate the enzyme activity expressed as the slope of the linearized curve via the linear regression function (Excel, Microsoft, USA).
The inhibitory activity of the tested compounds was determined via 30 min pre-incubation with the enzyme at various concentrations of the inhibitor at room temperature in a 0.1 M phosphate buffer pH 7.5 with 5 µM PLP. The enzyme reaction was initiated by the addition of a substrate and cofactors. The final mixture contained 20 nM of hKAT-II, 0.3 mM of AAD, 50 µM α-ketoglutarate, 3 mM NAD^+, and 88 µg/mL of glutamic dehydrogenase. Kinetic data were collected over a period of 30 min, and the slope of the linearized curve was calculated as above. The inhibitory activity in %I at a given concentration was calculated for novel compounds using the following equation:(1) Inhibition [%I]=(V0− Vi/V0)×100, where V0 and Vi are the activity of the enzyme in the absence and presence of the inhibitor, respectively. All the data were obtained in pentaplicate for each measurement (n = 3). Alternatively, the IC50 values for selected novel compounds were assessed. GraphPad Prism 8 software (San Diego, USA) was used for the IC50 value calculation using non-linear regression (four parameters). […]

[3] = 30 min pre-incubation, 20 nM hKAT-II, non-linear regression (four parameters), read-out: IC50 ± SEM

T1 sequence (Q8N5Z0 30-425): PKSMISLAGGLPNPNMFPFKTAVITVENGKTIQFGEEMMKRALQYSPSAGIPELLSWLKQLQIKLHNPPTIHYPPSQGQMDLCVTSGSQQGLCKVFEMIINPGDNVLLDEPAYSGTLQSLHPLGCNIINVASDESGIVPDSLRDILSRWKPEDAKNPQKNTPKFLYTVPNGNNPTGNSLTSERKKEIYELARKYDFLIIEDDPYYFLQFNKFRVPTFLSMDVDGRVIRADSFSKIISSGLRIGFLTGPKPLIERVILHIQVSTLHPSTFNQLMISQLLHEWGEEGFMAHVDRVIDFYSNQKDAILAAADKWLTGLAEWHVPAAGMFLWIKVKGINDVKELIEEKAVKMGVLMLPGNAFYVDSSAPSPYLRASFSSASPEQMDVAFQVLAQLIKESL

Structure (SMILES)	IC50 [1] [nM]	Inhibitory Activity [%I ± SEM] c = 1 µM ([2]; 20 nM hKAT-II) [%I]	melting point	IC50 [2, 3] [nM]	IC50 [2] [nM]
CCS(=O)(=O)c1ccc(C(=O)C[C@H](N)C(=O)O)cc1 [Compound 1, (S)-ESBA]	71000	–	–	–	–
N[C@H]1Cc2cn(-c3ccccc3)nc2N(O)C1=O [Compound 4]	25	–	–	–	–
Cn1c(CN2CCOCC2)nc2sc([C@H]3CCCN3C(=O)OCc3ccccc3)nc2c1=O [Compound 8]	610	–	–	–	–
CC(C)[C@@H](Cc1nnc(NS(=O)(=O)c2cc(F)cc(F)c2)s1)c1cccc(F)c1 [Compound 9]	880	–	–	–	–
O=C1NC(=O)/C(=C/c2cccc(-c3ccc4c5c3CCC(=O)N5CC4)c2)S1 [Compound 5, BFF-816]	13400	–	–	–	–
NS(=O)(=O)c1ccc(N2C(=O)c3cc(Cl)c(Cl)cc3C2=O)cc1 [Compound 7]	73800	–	–	–	–
C[C@H]1COc2c(N3CCN(N)CC3)c(F)cc3c(=O)c(C(=O)O)cn1c23 [Compound 2, BFF-122]	1000	–	–	–	–
N[C@H](C(=O)c1ncc(-c2ccccc2)s1)C1CC1 [Compound 25f]	–	6.12 ± 2.66	> 165 °C (dec.)	–	–
C[C@H](N)C(=O)c1cn(-c2ccc(Cl)c(Cl)c2)nn1 [Compound 26u]	–	19.33 ± 1.06	> 163 °C (dec.)	–	–
C[C@H](N)C(=O)c1cn(-c2ccccc2Cl)nn1.Cl [Compound 26t]	–	35.52 ± 3.63	138 to 169 °C (dec.)	–	–
CC[C@H](N)C(=O)c1cn(-c2ccc(F)cc2)nn1.Cl [Compound 32c]	–	35.94 ± 2.87	> 182 °C (dec.)	–	–
CC[C@H](N)C(=O)c1ncc(-c2ccc(F)cc2Cl)s1.Cl [Compound 49d]	–	59.71 ± 0.97	> 134 °C (dec.)	304 ± 39	–
Cc1cccc(C)c1-n1cc(C(=O)[C@H](C)N)nn1 [Compound 26h]	–	25.38 ± 2.22	> 176 °C (dec.)	–	–
CC[C@H](N)C(=O)c1ncc(-c2ccc(F)cc2)s1 [Compound 49b]	–	57.07 ± 0.31	> 150 °C (dec.)	–	–
Cl.N[C@@H](CCc1ccccc1)C(=O)c1cn(-c2ccccc2)nn1 [Compound 21c]	–	16.50 ± 3.71	> 175 °C (dec.)	–	–
Cc1ccc(NC(=O)N2CCCC3(CCC(=O)N(CCC(C)C)C3)C2)cc1Cl (centres unmarked) [Compound 10]	810	–	–	–	–
C[C@H](N)C(=O)c1cn(-c2ccc(F)cc2)nn1.Cl [Compound 26n]	–	41.77 ± 3.01	> 183 °C (dec.)	–	–
COc1cccc(-n2cc(C(=O)[C@H](C)N)nn2)c1 [Compound 26b]	–	18.20 ± 2.27	> 171 °C (dec.)	–	–
N[C@@H](CCc1ccccc1)C(=O)c1ncc(-c2ccccc2)s1 [Compound 25c]	–	31.32 ± 0.88	> 135 °C (dec.)	–	–

Structure (SMILES)	IC50 [1] [nM]	Inhibitory Activity [%I ± SEM] c = 1 µM ([2]; 20 nM hKAT-II) [%I]	melting point	IC50 [2, 3] [nM]	IC50 [2] [nM]
C[C@H](N)C(=O)c1cn(-c2ccccc2)nn1 [Compound 12, 4-alaninoyl-1-phenyl-1H-1,2,3-triazole]	–	43.19 ± 2.30	> 178 °C (dec.)	3210 ± 260	–
N[C@H](C(=O)c1cn(-c2ccccc2)nn1)C1CC1 [Compound 21f]	–	7.44 ± 3.75	> 183 °C (dec.)	–	–
C[C@H](N)C(=O)c1cn(-c2ccc(F)cc2Cl)nn1 [Compound 32a]	–	25.30 ± 1.10	> 158 °C (dec.)	–	–
C[C@H](N)C(=O)c1cn(-c2cccc3ccccc23)nn1 [Compound 26i]	–	4.32 ± 1.32	> 172 °C (dec.)	–	–
CC[C@H](N)C(=O)c1ncc(-c2ccccc2)s1 [Compound 25e]	–	44.18 ± 3.42	> 180 °C (dec.)	–	–
N[C@@H](Cc1ccccc1)C(=O)c1cn(-c2ccccc2)nn1 [Compound 21b]	–	14.52 ± 3.71	> 174 °C (dec.)	–	–
C[C@H](N)C(=O)c1nc2ccc(F)cc2s1 [Compound 34b]	–	56.60 ± 3.68	> 152 °C (dec.)	–	987 ± 88
CC(C)[C@H](N)C(=O)c1cn(-c2ccccc2)nn1.Cl [Compound 21a]	–	10.32 ± 4.81	> 182 °C (dec.)	–	–
C[C@H](N)C(=O)c1cn(-c2ccncc2)nn1.Cl.Cl [Compound 26m]	–	33.48 ± 4.88	> 183 °C (dec.)	–	–
CC1(C)[C@@H](O)CC[C@]2(C)[C@H]3C(=O)C=C4[C@@H]5C[C@@](C)(C(=O)O)CC[C@]5(C)CC[C@@]4(C)[C@]3(C)CC[C@@H]12 [Compound 6, glycyrrhetinic acid]	7000	–	–	–	–
Cc1ccc(-n2cc(C(=O)[C@H](C)N)nn2)cc1C [Compound 26f]	–	9.10 ± 2.07	> 170 °C (dec.)	–	–
C[C@H](N)C(=O)c1cn(-c2cccc([N+](=O)[O-])c2)nn1.Cl [Compound 26p]	–	41.43 ± 2.67	> 183 °C (dec.)	–	–
CCCC[C@H](N)C(=O)c1ncc(-c2ccccc2)s1 [Compound 25d]	–	37.22 ± 2.53	124 to 127 °C	–	–
C[C@H](N)C(=O)c1ncc(-c2ccccc2)s1 [Compound 11, 2-alaninoyl-5-phenylthiazole]	–	41.41 ± 4.15	> 168 °C (dec.)	1620 ± 1430	–
CC[C@H](N)C(=O)c1nc2ccccc2s1.Cl [Compound 34c]	–	36.16 ± 3.81	> 140 °C (dec.)	–	–
C[C@H](N)C(=O)c1cn(-c2ccc(Cl)cc2)nn1.Cl [Compound 26r]	–	23.86 ± 2.95	> 177 °C (dec.)	–	–
Cc1ccc(-n2cc(C(=O)[C@H](C)N)nn2)c(C)c1 [Compound 26g]	–	41.60 ± 6.39	> 175 °C (dec.)	–	–
C[C@H](N)C(=O)c1cn(-c2ccc(C(C)(C)C)cc2)nn1 [Compound 26d]	–	0.98 ± 1.98	> 181 °C (dec.)	–	–
CC[C@H](N)C(=O)c1nc2ccc(F)cc2s1.Cl [Compound 34d]	–	9.73 ± 1.41	> 145 °C (dec.)	–	–

From paper PMC8708382, “Heterocyclic Cathinones as Inhibitors of Kynurenine Aminotransferase II—Design, Synthesis, and Evaluation” (Pharmaceuticals, 2021)
